According to patent publication US7351744B2, “Naphthalene derivatives as termite repellents and toxicants” (Board of Supervisors of Louisiana State University and …, priority 2003, dated 2008):

Legend:
[1] = Longevity and volatility of the eleven chemicals; format: physicochemical; settings: among the eleven chemicals tested
C. formosanus workers = test: whole plant or invertebrate; format: in vivo, Coptotermes formosanus; settings: for Consumption (mg) day 8: wood slice
Procedure: Three-chambered transparent plastic containers as described in Example 4 were used to test the effectiveness of 2′-acetonaphthone as a barrier to prevent termites from reaching a food source. Each tested concentration of 2′-acetonaphthone was dissolved in 60 ml ethanol and mixed with 600 g of sand. For a control, 600 g of sand was mixed with 60 ml ethanol. The untreated and treated sand were placed in holding containers, and kept overnight at ambient conditions for solvent evaporation. In each container, sand was mixed with 60 ml DDH2O. Into the middle chamber, 110 g of either treated or untreated sand was gently added, packed, and leveled to clearly see tunnels. Six replicates were used for each concentration and control. Weighed balsa wood slices (0.159 cm×3.5 cm×6.0 cm, Ochroma lagopus Swartz) were placed in one of the two lateral chambers and wetted with 1 ml DDH2O. Into each container, 200 workers and 20 soldiers were released in the opposite lateral chamber from the wood slice. Termites were thus required to cross through the treated sand in the middle chamber to reach the food source. Containers were covered, and incubated in complete darkness at 27.4° C. and 70% RH. If necessary, 1 ml DDH2O was added to the sand and wood slice twice a week to maintain proper moisture. Three separate experiments were conducted using the same technique with different colonies.
In the first experiment, termites from Colony BS were used, and tested concentrations of 2′-acetonaphthone were 0.0, 16.67, 33.33, 50.0, 100.0, and 200.0 mg/kg sand. The number of dead workers was recorded daily to day 6. On day 6, the number of living workers in the releasing chamber was also recorded, and the bottoms of the three-chambered containers were scanned (ScanJet 4C, Hewlett-Packard, Palo Alto, Calif.). The images were printed in actual size, and the tunnel areas measured. After 8 days, the total number of living workers in each container was recorded; and the wood slices were gently cleaned using deionized water with a small brush. The slices were then oven dried at 60° C. for 3 h and reweighed. The difference in weight of the wood slices from the initial weighing was used to calculate food consumption.
The experiment was repeated a third time to further test for molting failures. The protocol was described as above. Five concentrations of 2′-acetonaphthone (4.15, 8.33, 16.67, 33.33, and 66.67 mg/kg sand) were evaluated using termites from colony WB. Tunnels were scanned, printed, and areas measured on days 2, 3, 4 and 7. Percent survival and food consumption were calculated on day 12 as previously described. To evaluate the effect of 2′-acetonaphthone treatments on worker survival, tunnel area and food consumption, an analysis of variance was conducted followed by a least significant difference procedure.

[2] = Coptotermes formosanus, 168 h, read-out: Mortality (%), day 7

- longevity [1]: highest longevity
- volatility [1]: lowest volatility
Structure (SMILES): CC(=O)c1ccc2ccccc2c1 [2′-acetonaphthone]
- Food consumption (mg) day 12 (C. formosanus workers; 4.16 mg kg^−1, colony E): 27.1 ± 2.3 b mg
- Molting failure (%), day 7 (C. formosanus workers; 4.16 mg kg^−1, colony E): 26.7 ± 6.0 a %
- Survival (%) day 12 (C. formosanus workers; 4.16 mg kg^−1, colony E): 34.2 ± 6.0 a %
- Termite (%), workers counted in the releasing chambers on day 5 (C. formosanus workers; 4.16 mg kg^−1, colony E): 34.9 ± 2.8 b %
- Tunnel area (cm^2), day 12 (C. formosanus workers; 4.16 mg kg^−1, colony E): 22.8 ± 4.4 a cm^2
- Food consumption (mg) day 12 (C. formosanus workers; 4.16 mg/kg, colony WB): 35.0 ± 13.8 a mg
- Survival (%) day 12 (C. formosanus workers; 4.16 mg/kg, colony WB): 55.8 ± 7.3 a %
- Tunnel area (cm^2), day 2 (C. formosanus workers; 4.16 mg/kg, colony WB): 3.4 ± 1.6 a cm^2
- Tunnel area (cm^2), day 3 (C. formosanus workers; 4.16 mg/kg, colony WB): 6.1 ± 2.6 ab cm^2
- Tunnel area (cm^2), day 4 (C. formosanus workers; 4.16 mg/kg, colony WB): 8.0 ± 2.7 ab cm^2
- Tunnel area (cm^2), day 7 (C. formosanus workers; 4.16 mg/kg, colony WB): 17.0 ± 4.5 a cm^2
- Food consumption (mg) day 12 (C. formosanus workers; 8.33 mg kg^−1, colony E): 0.0 ± 0.0 c mg
- Molting failure (%), day 7 (C. formosanus workers; 8.33 mg kg^−1, colony E): 11.5 ± 1.9 b %
- Survival (%) day 12 (C. formosanus workers; 8.33 mg kg^−1, colony E): 4.2 ± 1.9 b %
- Termite (%), workers counted in the releasing chambers on day 5 (C. formosanus workers; 8.33 mg kg^−1, colony E): 77.9 ± 4.5 a %
- Tunnel area (cm^2), day 12 (C. formosanus workers; 8.33 mg kg^−1, colony E): 2.8 ± 1.9 b cm^2
- Food consumption (mg) day 12 (C. formosanus workers; 8.33 mg/kg, colony WB): 8.3 ± 3.1 b mg
- Survival (%) day 12 (C. formosanus workers; 8.33 mg/kg, colony WB): 7.4 ± 3.3 b %
- Tunnel area (cm^2), day 2 (C. formosanus workers; 8.33 mg/kg, colony WB): 2.3 ± 1.3 a cm^2
- Tunnel area (cm^2), day 3 (C. formosanus workers; 8.33 mg/kg, colony WB): 3.1 ± 1.2 bc cm^2
- Tunnel area (cm^2), day 4 (C. formosanus workers; 8.33 mg/kg, colony WB): 3.5 ± 1.3 bc cm^2
- Tunnel area (cm^2), day 7 (C. formosanus workers; 8.33 mg/kg, colony WB): 4.5 ± 1.8 b cm^2
- Food consumption (mg) day 12 (C. formosanus workers; 16.67 mg kg^−1, colony E): 0.0 ± 0.0 c mg
- Molting failure (%), day 7 (C. formosanus workers; 16.67 mg kg^−1, colony E): 13.9 ± 1.2 b %
- Survival (%) day 12 (C. formosanus workers; 16.67 mg kg^−1, colony E): 0.0 ± 0.0 b %
- Termite (%), workers counted in the releasing chambers on day 5 (C. formosanus workers; 16.67 mg kg^−1, colony E): 78.6 ± 4.0 a %
- Tunnel area (cm^2), day 12 (C. formosanus workers; 16.67 mg kg^−1, colony E): 0.0 ± 0.0 b cm^2
- Survival (%) day 8 (C. formosanus workers; 16.67 mg/kg sand, colony BS): 6.8 ± 6.7 b %
- Termite (%) day 6, percent workers in the releasing chambers (C. formosanus workers; 16.67 mg/kg sand, colony BS): 39.8 ± 8.8 b %
- Tunnel area (cm^2) day 6 (C. formosanus workers; 16.67 mg/kg sand, colony BS): 1.4 ± 0.9 b cm^2
- Consumption (mg) day 8 (C. formosanus workers; 16.67 mg/kg sand, colony BS): 3.3 ± 3.3 b mg
- Food consumption (mg) day 12 (C. formosanus workers; 16.67 mg/kg, colony WB): 3.3 ± 2.1 b mg
- Survival (%) day 12 (C. formosanus workers; 16.67 mg/kg, colony WB): 0.0 ± 0.0 b %
- Tunnel area (cm^2), day 2 (C. formosanus workers; 16.67 mg/kg, colony WB): 0.9 ± 0.4 a cm^2
- Tunnel area (cm^2), day 3 (C. formosanus workers; 16.67 mg/kg, colony WB): 1.6 ± 1.0 bc cm^2
- Tunnel area (cm^2), day 4 (C. formosanus workers; 16.67 mg/kg, colony WB): 1.7 ± 1.0 c cm^2
- Tunnel area (cm^2), day 7 (C. formosanus workers; 16.67 mg/kg, colony WB): 0.7 ± 0.5 b cm^2
- Food consumption (mg) day 12 (C. formosanus workers; 33.33 mg kg^−1, colony E): 0.0 ± 0.0 c mg
- Molting failure (%), day 7 (C. formosanus workers; 33.33 mg kg^−1, colony E): 15.9 ± 2.4 b %
- Survival (%) day 12 (C. formosanus workers; 33.33 mg kg^−1, colony E): 0.0 ± 0.0 b %
- Termite (%), workers counted in the releasing chambers on day 5 (C. formosanus workers; 33.33 mg kg^−1, colony E): 79.6 ± 2.2 a %
- Tunnel area (cm^2), day 12 (C. formosanus workers; 33.33 mg kg^−1, colony E): 0.0 ± 0.0 b cm^2
- Survival (%) day 8 (C. formosanus workers; 33.33 mg/kg sand, colony BS): 19.1 ± 9.1 b %
- Termite (%) day 6, percent workers in the releasing chambers (C. formosanus workers; 33.33 mg/kg sand, colony BS): 39.8 ± 10.2 b %
- Tunnel area (cm^2) day 6 (C. formosanus workers; 33.33 mg/kg sand, colony BS): 5.5 ± 2.1 b cm^2
- Consumption (mg) day 8 (C. formosanus workers; 33.33 mg/kg sand, colony BS): 11.7 ± 8.2 b mg
- Food consumption (mg) day 12 (C. formosanus workers; 33.33 mg/kg, colony WB): 3.3 ± 2.1 b mg
- Survival (%) day 12 (C. formosanus workers; 33.33 mg/kg, colony WB): 0.1 ± 0.1 b %
- Tunnel area (cm^2), day 2 (C. formosanus workers; 33.33 mg/kg, colony WB): 0.0 ± 0.0 a cm^2
- Tunnel area (cm^2), day 3 (C. formosanus workers; 33.33 mg/kg, colony WB): 0.0 ± 0.0 c cm^2
- Tunnel area (cm^2), day 4 (C. formosanus workers; 33.33 mg/kg, colony WB): 0.0 ± 0.0 c cm^2
- Tunnel area (cm^2), day 7 (C. formosanus workers; 33.33 mg/kg, colony WB): 0.0 ± 0.0 b cm^2
- Survival (%) day 8 (C. formosanus workers; 50.0 mg/kg sand, colony BS): 1.8 ± 1.8 b %
- Termite (%) day 6, percent workers in the releasing chambers (C. formosanus workers; 50.0 mg/kg sand, colony BS): 31.2 ± 2.8 b %
- Tunnel area (cm^2) day 6 (C. formosanus workers; 50.0 mg/kg sand, colony BS): 2.5 ± 1.1 b cm^2
- Consumption (mg) day 8 (C. formosanus workers; 50.0 mg/kg sand, colony BS): 0.0 ± 0.0 b mg
- Food consumption (mg) day 12 (C. formosanus workers; 66.67 mg/kg, colony WB): 4.2 ± 3.3 b mg
- Survival (%) day 12 (C. formosanus workers; 66.67 mg/kg, colony WB): 0.0 ± 0.0 b %
- Tunnel area (cm^2), day 2 (C. formosanus workers; 66.67 mg/kg, colony WB): 0.4 ± 0.2 a cm^2
- Tunnel area (cm^2), day 3 (C. formosanus workers; 66.67 mg/kg, colony WB): 0.4 ± 0.2 c cm^2
- Tunnel area (cm^2), day 4 (C. formosanus workers; 66.67 mg/kg, colony WB): 0.4 ± 0.2 c cm^2
- Tunnel area (cm^2), day 7 (C. formosanus workers; 66.67 mg/kg, colony WB): 0.4 ± 0.2 b cm^2
- Survival (%) day 8 (C. formosanus workers; 100.0 mg/kg sand, colony BS): 0.0 ± 0.0 b %
- Termite (%) day 6, percent workers in the releasing chambers (C. formosanus workers; 100.0 mg/kg sand, colony BS): 79.8 ± 8.7 a %
- Tunnel area (cm^2) day 6 (C. formosanus workers; 100.0 mg/kg sand, colony BS): 3.3 ± 1.6 b cm^2
- Consumption (mg) day 8 (C. formosanus workers; 100.0 mg/kg sand, colony BS): 0.0 ± 0.0 b mg
- Survival (%) day 8 (C. formosanus workers; 200.0 mg/kg sand, colony BS): 1.3 ± 1.3 b %
- Termite (%) day 6, percent workers in the releasing chambers (C. formosanus workers; 200.0 mg/kg sand, colony BS): 81.8 ± 6.0 a %
- Tunnel area (cm^2) day 6 (C. formosanus workers; 200.0 mg/kg sand, colony BS): 0.0 ± 0.0 b cm^2
- Consumption (mg) day 8 (C. formosanus workers; 200.0 mg/kg sand, colony BS): 0.0 ± 0.0 b mg
- mortality at 4.16 mg/kg (C. formosanus workers; [2]): 35.9 ± 4.4%
- mortality at 8.33 mg/kg (C. formosanus workers; [2]): 71.8 ± 8.8%
- mortality at 16.67 mg/kg (C. formosanus workers; [2]): 99.5 ± 0.5%
- mortality at 33.33 mg/kg (C. formosanus workers; [2]): 100%
- Food consumption (C. formosanus workers; all treatments 16.67 to 200 mg/kg, control 98.3 mg, day 8): ≤ 11.7 mg
- concentration giving significant reduction in tunneling and feeding activity (C. formosanus workers; as low as): 8 mg/kg sand
- concentration at which no food was consumed (C. formosanus workers; colony BS, day 8): ≥ 50 mg/kg
- concentration at which no termite reached the feeding chamber (C. formosanus workers; colony E): > 8.16 mg/kg
- concentration forming an effective barrier (toxic, inhibits tunneling and feeding) (C. formosanus workers; treated sand): ≥ 8.33 mg/kg
